Usually EC50 stands for the concentration that produces a half-maximal response.

For one assay, the target named is T1, PPARα (Homo sapiens, UniProt Q07869).
T1 sequence (Q07869 201-468 limits assumed): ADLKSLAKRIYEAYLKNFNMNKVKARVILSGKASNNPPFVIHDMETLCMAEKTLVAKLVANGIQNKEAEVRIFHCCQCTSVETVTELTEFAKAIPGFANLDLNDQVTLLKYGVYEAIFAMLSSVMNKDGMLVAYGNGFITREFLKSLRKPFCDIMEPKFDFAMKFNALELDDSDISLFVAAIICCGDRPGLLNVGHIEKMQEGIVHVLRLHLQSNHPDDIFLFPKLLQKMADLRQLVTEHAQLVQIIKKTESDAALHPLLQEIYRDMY
As to the kind of experiment: PPAR cotransfection (transactivation) assay in CV-1 cells, GAL4 chimeric system. The assay is classed as cell-based. As to the method: (§1) DNA-dependent binding is carried out using SPA technology with PPAR receptors. Tritium-labeled PPARα agonists are used as radioligands for generating displacement curves and IC50 values with compounds of the invention. Cotransfection assays are carried out in CV-1 cells. The reporter plasmid contained an acylCoA oxidase (AOX) PPRE and TK promoter upstream of the luciferase reporter cDNA. Appropriate PPARs are constitutively expressed using plasmids containing the CMV promoter. For PPARα, interference by endogenous PPARγ in CV-1 cells is an issue. In order to eliminate such interference, a GAL4 chimeric system is used in which the DNA binding domain of the transfected PPAR is replaced by that of GAL4, and the GAL4 response element is utilized in place of the AOX PPRE. Cotransfection efficacy is determined relative to PPAR agonist reference molecules. Efficacies are determined by computer fit to a concentration-response curve, or in some cases at a single high concentration of agonist (10 μM).
(§2) These studies are carried out to evaluate the ability of compounds of the invention to bind to and/or activate various nuclear transcription factors, particularly huPPARδ (“hu” indicates “human”). These studies provide in vitro data concerning efficacy and selectivity of compounds of the invention.

The next assay deals with T2, PPARδ (Homo sapiens, UniProt Q03181).
T2 construct: expressed in transfected cells; host or cells: CV-1 cells
T2 sequence (Q03181 1-441): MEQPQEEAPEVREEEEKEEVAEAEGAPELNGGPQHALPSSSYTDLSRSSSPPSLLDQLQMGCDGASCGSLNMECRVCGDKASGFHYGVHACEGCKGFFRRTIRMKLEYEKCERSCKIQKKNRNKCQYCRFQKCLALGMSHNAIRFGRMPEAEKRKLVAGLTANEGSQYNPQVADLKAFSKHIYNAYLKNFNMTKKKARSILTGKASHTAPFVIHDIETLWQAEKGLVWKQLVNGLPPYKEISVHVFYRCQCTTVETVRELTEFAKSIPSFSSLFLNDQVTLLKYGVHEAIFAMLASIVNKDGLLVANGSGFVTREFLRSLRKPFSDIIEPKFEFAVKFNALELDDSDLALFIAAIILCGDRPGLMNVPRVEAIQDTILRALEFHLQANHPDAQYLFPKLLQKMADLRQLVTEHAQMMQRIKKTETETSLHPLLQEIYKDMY
As to the kind of experiment: PPAR cotransfection (transactivation) assay in CV-1 cells. The assay is classed as cell-based. As to the method: as §1, §2

Another assay concerns the target T3, PPARγ (Homo sapiens, UniProt P37231).
T3 construct: expressed in transfected cells; host or cells: CV-1 cells
T3 sequence (P37231 1-505): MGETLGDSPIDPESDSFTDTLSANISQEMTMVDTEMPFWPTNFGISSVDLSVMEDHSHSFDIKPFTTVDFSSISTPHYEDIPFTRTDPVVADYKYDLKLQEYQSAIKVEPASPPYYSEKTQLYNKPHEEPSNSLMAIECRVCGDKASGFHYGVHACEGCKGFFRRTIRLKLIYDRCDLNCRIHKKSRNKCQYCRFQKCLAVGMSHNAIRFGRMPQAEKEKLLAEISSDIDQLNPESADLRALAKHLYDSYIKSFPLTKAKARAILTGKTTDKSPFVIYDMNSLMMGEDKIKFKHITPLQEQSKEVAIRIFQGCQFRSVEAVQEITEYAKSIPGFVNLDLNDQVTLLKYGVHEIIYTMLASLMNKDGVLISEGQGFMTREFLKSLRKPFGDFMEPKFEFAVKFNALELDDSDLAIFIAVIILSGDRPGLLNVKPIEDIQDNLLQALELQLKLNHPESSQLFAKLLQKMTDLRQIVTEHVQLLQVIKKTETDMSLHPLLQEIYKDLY
Described as above. It counts as cell-based. As to the method: as §1, §2

The test system of assay [1] is obese, non-diabetic rhesus monkeys. In words: Dyslipidemic rhesus monkey model, oral dose-escalation study for 28 days. The assay is classed as in vivo. As to the method: The compound of Formula 1 was examined in a dyslipidemic rhesus monkey model. […] HDL cholesterol increased by more than 40% in the 3.0 mg/kg b.i.d. dose group. LDL cholesterol decreased by approximately 25% in the 9.0 mg/kg b.i.d dose group, and a dose-related effect on triglycerides yielded a maximum 53% reduction in the 9.0 mg/k.g b.i.d dose group.

For `Cc1cc(SCc2cn(-c3ccc(C(F)(F)F)cc3)nc2C)ccc1OCC(=O)O` [Formula 1, {2-Methyl-4-[3-methyl-1-(4-trifluoromethyl-phenyl)-1H-pyrazol-4-ylmethylsulfanyl]-phenoxy}-acetic acid], the values for the EC50 on PPARα, on PPARδ and on PPARγ were 1.8 µM, 0.02 µM and 2.6 µM, respectively. Further, in assay [1] (compared to pretreatment levels), the C-reactive protein levels entry is given as “reduced compared to pretreatment levels”. Besides, the HDL-c change entry in assay [1] (oral dose-escalation, 28 days, each dose) is “elevation of HDL-c with each dose”. The HDL cholesterol increase result in assay [1] (oral, 3.0 mg/kg b.i.d. dose group) is “more than 40%”. Moreover, in assay [1] (oral, 9.0 mg/kg b.i.d. dose group), the LDL cholesterol decrease entry is “approximately 25%”. The molecule further gave a triglycerides maximum reduction in assay [1] (oral, 9.0 mg/kg b.i.d. dose group, dose-related effect) of 53%.
